The values that follow come from US9840478B2 (MERCK SHARP & DOHME CORP., priority 2013, dated 2017).

The target of the first assay is T1, wildtype HIV-1 protease (Human immunodeficiency virus type 1 group M subtype B, UniProt P04585).
T1 construct: preincubated with the HIV-1 protease (wild type) enzyme in assay buffer; made in house; host or cells: Escherichia coli
The assay can be described thus: Assay for inhibition of microbial expressed HIV protease (Pepcleav). It is filed as biochemical. Conditions: wildtype HIV-1 protease expressed in E. coli; peptide substrate; mean of at least two independent experiments. As for the experimental part: Assay for Inhibition of Microbial Expressed HIV Protease (“Pepcleav”)
Studies of the inhibition of the wildtype HIV-1 protease (which was expressed in Escherichia coli) were carried out with a peptide substrate [Val-Ser-Gln-Asn-(βnaphtyl)Ala-Pro-Ile-Val]. The inhibitor is first preincubated with the HIV-1 protease (wild type) enzyme in assay buffer (50 mM sodium acetate, pH 5.5, 100 mM NaCl, and 0.1% BSA) for 30 minutes at room temperature. Substrate is added to 400 micromolar in a total volume of 20 microliters containing 20 picomolar HIV-1 protease (final) and the reaction is incubated for 1 hour at 30° C. The reaction is quenched with the addition of formic acid and indinavir to 0.012% and 150 nM final concentrations, respectively. The product formation is determined after separation of product and substrate on a Zorbax Eclipse XDB-C18 column connected to an API 4000 mass spectrometer (Applied Biosystems) with multiple reaction monitoring (transitions were 644.5/428.9 and 615.4/422.2 (M1/M3) for product and indinavir respectively). The extent of inhibition of the reaction is determined from the peak area of the products. Analysis of the products, independently synthesized, provided quantitation standards and confirmation of the product composition.
Consider `CS(=O)(=O)N1CCNC[C@H]1CCc1c(F)cncc1NC(=O)[C@@H](N)C(c1ccc(F)cc1)c1ccc(F)cc1` [Example 2, 2S-Amino-3,3-di-(4-fluorophenyl)-N-(5-fluoro-4-(2-(1-methylsulfonylpiperazin-2-yl)ethyl)pyridin-3-yl)propanamide], for which the IC50 was 1400 nM.

As for `N[C@H](C(=O)Nc1cncc(F)c1CCC1CNCCN1S(=O)(=O)Cc1ccccc1)C(c1ccc(F)cc1)c1ccc(F)cc1` (stereo partly drawn) [Example 21, N-(4-{2-[1-(benzylsulfonyl)piperazin-2-yl]ethyl}-5-fluoropyridin-3-yl)-4-fluoro-β-(4-fluorophenyl)-L-phenylalaninamide], the IC50 is 3.4 nM.

In turn, `N[C@H](C(=O)Nc1cncc(F)c1CC[C@@H]1CNCCN1S(=O)(=O)c1ccccc1)C(c1ccc(F)cc1)c1ccc(F)cc1` [Example 23, (S)-2-amino-N-(5-fluoro-4-(2-((R)-1-(phenylsulfonyl)piperazin-2-yl)ethyl)pyridin-3-yl)-3,3-bis(4-fluorophenyl) propanamide] displayed an IC50 of 10 nM.

Compound `Nc1ccc(S(=O)(=O)N2CCNC[C@@H]2CCc2c(F)cncc2NC(=O)[C@@H](N)C(c2ccc(F)cc2)c2ccc(F)cc2)cc1` [Example 24, (S)-2-amino-N-(4-(2-((S)-1-((4-aminophenyl)sulfonyl)piperazin-2-yl)ethyl)-5-fluoropyridin-3-yl)-3,3-bis(4-fluorophenyl) propanamide] yielded an IC50 of 0.2 nM.

`Nc1ccc(S(=O)(=O)N2CCNC[C@H]2CCc2c(F)cncc2NC(=O)[C@@H](N)C(c2ccc(F)cc2)c2ccc(F)cc2)cc1` [Example 25, (S)-2-amino-N-(4-(2-((R)-1-((4-aminophenyl)sulfonyl)piperazin-2-yl)ethyl)-5-fluoropyridin-3-yl)-3,3-bis(4-fluorophenyl) propanamide] registered an IC50 of 1.3 nM.

Consider `CS(=O)(=O)N1CCNC[C@@H]1CCc1c(F)cncc1NC(=O)[C@@H](N)[C@@H](c1ccc(F)cc1)c1cc(F)cc(F)c1` [Example 26, (2S,3S)-2-amino-3-(3,5-difluorophenyl)-N-(5-fluoro-4-(2-((S)-1-(methylsulfonyl)piperazin-2-yl)ethyl)pyridin-3-yl)-3-(4-fluorophenyl)propanamide], for which the IC50 came to 3.5 nM.

`O=C(CC1(c2ccccc2)CCCNC1)Nc1cncc(F)c1CC[C@H]1CNCCN1S(=O)(=O)C1CC1` (stereo partly drawn) [Example 63, N-(4-{2-[(2S)-1-(cyclopropylsulfonyl)piperazin-2-yl]ethyl}-5-fluoropyridin-3-yl)-2-(3-phenylpiperidin-3-yl)acetamide] registered an IC50 of 1300 nM.

`O=C(C[C@@H](c1ccc(F)cc1)c1cc(F)cc(F)c1)Nc1cncc(F)c1CC[C@H]1CNCCN1C(=O)Nc1ccccc1` [Example 342, (2S)-2-[2-(3-{[(3S)-3-(3,5-difluorophenyl)-3-(4-fluorophenyl)propanoyl]amino}-5-fluoropyridin-4-yl)ethyl]-N-phenylpiperazine-1-carboxamide] had an IC50 of 250 nM.

For a further assay, the system named is HIV-1 (H9IIIB strain). The assay can be described thus: Cell-based HIV infection assay using a reporter (Cell-Based), MT4-GFP cells. Conditions: Human immunodeficiency virus 1, MT4-GFP cells infected with HIV-1 H9IIIB; 50% normal human serum; mean of at least two independent experiments; read-out: Cell-based IP. Put shortly:
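IC50 from 4-parameter dose-response of % viral growth inhibition, using the 48 h/24 h infected-cell ratio scaled between DMSO and a protease/integrase/NNRTI triple-drug control. Assay used MT4 cells with HIV-LTR-GFP reporter, pre-infected 24 h with HIV-1 H9IIIB, in 50% normal human serum.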
Turning to `COC(=O)N[C@H](C(=O)NC1CCCC1CC[C@H]1CNCCN1S(=O)(=O)c1ccccc1)C(c1ccc(Cl)cc1)C1CCOCC1` (stereo partly drawn) [Example 356, methyl ((1R,2S)-1-(4-chlorophenyl)-3-oxo-3-((2-(2-((S)-1-(phenylsulfonyl)piperazin-2-yl)ethyl)cyclopentyl)amino)-1-(tetrahydro-2H-pyran-4-yl)propan-2-yl)carbamate], the IC50 was determined as 28 nM.

With `COC(=O)NC(C(=O)NC1CC(O)CC1CC[C@H]1CNCCN1S(=O)(=O)c1ccccc1)C(c1ccc(F)cc1)c1ccc(F)cc1` (stereo partly drawn) [Example 357, Methyl ((2R)-1,1-bis(4-fluorophenyl)-3-((4-hydroxy-2-(2-((S)-1-(phenylsulfonyl)piperazin-2-yl)ethyl)cyclopentyl)amino)-3-oxopropan-2-yl)carbamate], the IC50 came out at 820 nM.

Turning to `N[C@H](C(=O)NC1CC(F)(F)CC1CC[C@H]1CNCCN1S(=O)(=O)c1ccccc1)[C@H](c1ccc(Cl)cc1)C1CCOCC1` (stereo partly drawn) [Example 360, (betaS)-4-chloro-N-(4,4-difluoro-2-{2-[(2S)-1-(phenylsulfonyl)piperazin-2-yl]ethyl}cyclopentyl)-beta-(tetrahydro-2H-pyran-4-yl)-L-phenylalaninamide], the IC50 is 610 nM.

As to `N[C@H](C(=O)Nc1cccc(F)c1CC[C@H]1CNCC2(CC2)N1S(=O)(=O)c1ccccc1)C(c1ccc(F)cc1)c1ccc(F)cc1` [Example 366, (S)-2-amino-N-(3-fluoro-2-(2-((S)-4-(phenylsulfonyl)-4,7-diazaspiro[2.5]octan-5-yl)ethyl)phenyl)-3,3-bis(4-fluorophenyl)propanamide], the IC50 came to 13 nM.

On to `CS(=O)(=O)N1[C@@H](CCc2c(F)cccc2NC(=O)[C@@H](N)C(c2ccc(F)cc2)c2ccc(F)cc2)CNCC12CC2` [Example 367, (S)-2-amino-N-(3-fluoro-2-(2-((S)-4-(methylsulfonyl)-4,7-diazaspiro[2.5]octan-5-yl)ethyl)phenyl)-3,3-bis(4fluorophenyl)propanamide], for which the IC50 amounted to 47 nM.

For `N[C@H](C(=O)Nc1cccc(F)c1CC[C@H]1CNCC2(CC2)N1C(=O)COc1ccccc1)C(c1ccc(F)cc1)c1ccc(F)cc1` [Example 368, (S)-2-amino-N-(3-fluoro-2-(2-((S)-4-(2-phenoxyacetyl)-4,7-diazaspiro[2.5]octan-5-yl)ethyl)phenyl)-3,3-bis(4-fluorophenyl)propanamide], the IC50 was determined as 1500 nM.

`COC(=O)N[C@H](C(=O)Nc1cccc(F)c1CC[C@H]1CNCC2(CC2)N1S(=O)(=O)c1ccccc1)[C@@H](c1ccc(Cl)cc1)C1CCOCC1` [Example 369, ((1R,2S)-1-(4-chlorophenyl)-3-((3-fluoro-2-(2-((S)-4-(phenylsulfonyl)-4,7-diazaspiro[2.5]octan-5-yl)ethyl)phenyl)amino)-3-oxo-1-(tetrahydro-2H-pyran-4-yl)propan-2-yl)carbamate]: the IC50 came out at 11 nM.

Turning to `C[C@@H]1C[C@H]([C@H](c2ccc(F)cc2)[C@H](N)C(=O)Nc2cccc(F)c2CC[C@H]2CNC[C@@H](C)N2S(=O)(=O)c2ccccc2)C[C@H](C)O1` [Example 370, (2S,3R)-2-amino-3-((2R,4r,6S)-2,6-dimethyltetrahydro-2H-pyran-4-yl)-N-(3-fluoro-2-(2-((2S,6R)-6-methyl-1-(phenylsulfonyl)piperazin-2-yl)ethyl)phenyl)-3-(4-fluorophenyl)propanamide], the IC50 is 7.5 nM.

For the compound `C[C@@H]1C[C@H]([C@H](c2ccc(F)cc2)[C@H](N)C(=O)Nc2cccc(F)c2CC[C@H]2CNC[C@@H](C)N2S(=O)(=O)c2ccc(F)cc2)C[C@H](C)O1` [Example 371, (2S,3R)-2-amino-3-((2R,4r,6S)-2,6-dimethyltetrahydro-2H-pyran-4-yl)-N-(3-fluoro-2-(2-((2S,6S)-1-((4-fluorophenyl)sulfonyl)-6-methylpiperazin-2-yl)ethyl)phenyl)-3-(4-fluorophenyl)propanamide], the IC50 is 9.6 nM.

With `N[C@H](C(=O)Nc1cccc(F)c1CC[C@H]1CNCCN1S(=O)(=O)c1cc2ccccc2o1)[C@@H](c1ccc(F)cc1)c1cc(F)cc(F)c1` [Example 372, (2S,3S)-2-amino-N-(2-(2-((S)-1-(benzofuran-2-ylsulfonyl)piperazin-2-yl)ethyl)-3-fluorophenyl)-3-(3,5-difluorophenyl)-3-(4-fluorophenyl)propanamide], the IC50 came out at 14 nM.

Consider `Cc1ccc(S(=O)(=O)N2CCNC[C@@H]2CCc2c(F)cccc2NC(=O)[C@@H](N)[C@@H](c2ccc(F)cc2)c2cc(F)cc(F)c2)o1` [Example 373, (2S,3S)-2-amino-3-(3,5-difluorophenyl)-N-(3-fluoro-2-(2-((S)-1-((5-methylfuran-2-yl)sulfonyl)piperazin-2-yl)ethyl)phenyl)-3-(4-fluorophenyl)propanamide], for which the IC50 was 4.2 nM.

Staying with this assay, now noted: MT4-GFP cells infected with HIV-1 H9IIIB; 50% normal human serum; mean of at least two independent experiments; read-out: Cell-based IP.
For the compound `N[C@H](C(=O)NC1CC(F)(F)CC1CC[C@H]1CNCCN1S(=O)(=O)c1ccccc1)[C@H](c1ccc(Cl)cc1)C1CCOCC1` (stereo partly drawn) [Example 361, (betaS)-4-hcloro-N-(4,4-difluoro-2-{2-[(2S)-1-(phenylsulfonyl)piperazin-2-yl]ethyl}cyclopentyl)-beta-(tetrahydro-2H-pyran-4-yl)-L-phenylalaninamide], the IC50 is 880 nM.

Regarding “methyl ((S)-1-((2R,4r,6S)-4- (4-chlorophenyl)-2,6- dimethyltetrahydro-2H- pyran-4-yl)-2-((3-fluoro-2-(2- ((2S,6S)-6-methyl-1- (phenylsulfonyl)piperazin-2- yl)ethyl)phenyl)amino)-2- oxoethyl)carbamate [Example 299]”, the IC50 came to 16 nM.
